Here are results for 3 molecules from patent US4714619A, “Aminomalonyl alanine compounds as dietary sweeteners” (priority 1986, dated 1987).

“Also recorded” adds a separate entry of the source. Like-named read-outs stand apart in the source and are kept apart here. Some results are limits rather than exact numbers.

For series [1] the following is noted: neonatal mice; cited from earlier work.
For series [2] the following is noted: monkeys; cited from earlier work.
The conditions of series [3]: cited from earlier work.
Series [4] in a line: Comparative taste test, D- versus L-configuration (Table 2, FIG. 3). Also noted: Sweet? (average score) / Bitter? (average score) / Salty? (average score) / Off Taste? (average score) / After Taste? (average score): scale not given here. The method, then:
The compounds were dissolved in distilled water at the concentrations specified in Table 2. Solutions were made up and kept overnight in a refrigerator. The following day, they were poured into individual graduated plastic cups (10 ml per cup) and allowed to warm to room temperature. A taste panel was convened and testing begun that same day. Tasting and evaluation was done by the standard protocol developed by Dr. Robert Gesteland of Taste and Smell Consulting Group, Inc.
The first solution tasted (reference standard for the panel) was 0.25M sucrose. Other solutions were tasted in radomized fashion. The random order was arrived at as follows:
i. An ordered list of the compounds and concentrations was prepared (26 solutions in all).
ii. 0.25M sucrose was designated as 1.
iii. A standard table of random numbers was used in which the numbers were grouped as two-digit numbers. A point in the table was chosen at random (blind pointing). The first solution in the list was given the first random number in the sequence (read right-to-left, up-to-down) which is between 2 and 26. The second solution in the list was given the next random number in the sequence between 2 and 26, etc. Repeat numbers were ignored.
iv. Solutions were then labeled A (for number 1) B (for random number 2), C-Z.
v. Panelists were instructed to taste the solutions in alphabetical order.
With the assistance of Taste and Smell Consulting Group, Inc., taste panel members were trained adn tested for their ability to discriminate sucrose solutions of varying concentrations. In summary it may be stated that all 9 panel members had acceptble correlation scores. Their results were in good agreement with those which have been previously reported in siilar types of studies. For the test series the correlations for each panelist for sucrose and aspartame were acceptable as were the overall results obtained by averaging individual scores. The results of the taste panel are set forth in Table 2 wherein the parenthetical figures represent the standard error values for the number above.

Series [5] is described as follows: Taste panel (Table 1, FIG. 2). The note with it: for After Taste? (average score) / Bitter? (average score) / Off Taste? (average score) / Pleasant? (average score) / Salty? (average score) / Sweet? (average score): normalized to 100.
The nature of series [6]: Stability in aqueous solution (hplc, ambient temperature). The format is physicochemical. The note with it: for degraded at 864 h: 0.05m phosphate buffer, ambient temperature, read-out: degradation. The method, then:
Stability was examined in aqueous solution at various pHs. Solutions (1% w/v) were prepared in 0.05M phosphate buffer adjusted to pH 7.4 and pH 3.5. Storage at ambient temperature over 36 days was monitored by hplc analysis (waters radial-pak reverse phase C-8 column, 25% CH3 CN, 0.05% TFA/H2 O eluant, 210 nm U.V. detection). Aspartame was examined similarly for comparison purposes.

A short description of series [7]: Acute oral toxicity testing. Format: in vivo, Swiss male mice. How it is done:
The isopropyl ester was evaluated for acute oral toxicity in Swiss male mice. The testing parameters were as follows: each test group contained six mice (20-30 grams each); the isopropyl ester was administered in an aqueous solution as a single oral dose of 100 mg/kg and 300 mg/kg; two solvent controls were also administered; the mice were again given food two hours after sample administration.
Body weights were measured on day -3, 0, +7 and +14. Physiological parameters were examined the entire first day, then three times a day through the first week and twice a day for the second week. Blood serum analyses for urea nitrogen and alanine aminotransferase activities were measured on day -3 and day +14. On day 14, a gross necropsy was performed on each mouse.
Blood samples were collected from the tail vein for biochemical testing of serum samples. This procedure virtually eliminated hemolyzed samples.

Another series concerns five Salmonella strains. Briefly: Ames/Salmonella mutagenicity assay. The note with it: 0.3-3000 ug/plate, with and without S9; toxicity at the two highest doses. The format is cell-based. How it is done:
The isopropyl ester was tested for mutuagenic potential in the Ames assay employing: (1) five Salmonella strains which detect frameshift mutagens or base-pair substitution mutagens, (2) both the presence and absence of mammalian S9 microsomal liver fraction as the metabolic activator, which differentiate promutagens from direct-acting mutagens, (3) five dose levels (3000, 300, 30, 3, 0.3 ug/plate), and (4) three plates per dose. The compound was also tested for toxicity, with and without S9 activation, at the two highest doses. […] Positive controls and spontaneous background revertants were within acceptable ranges.

The mark [8] stands for this setting: single oral dose 100 and 300 mg/kg, 14 days.

`N[C@@H](CC(=O)O)C(=O)O` [aspartic acid]: in series [1], the brain lesions result was “causes brain lesions in neonatal mice”.

Regarding `N[C@@H](Cc1ccccc1)C(=O)O` [phenylalanine], the grand mal-type seizures entry in series [2] is reported as “reported to induce grand mal-type seizures in monkeys”. Moreover, the “behavioral changes and brain chemistry” value in series [3] (in vivo) is “induce behavioral changes, and alter brain chemistry”. Besides, the birth defects result in series [3] (pregnant women with phenylketonuria) was “produce birth defects in pregnant women with phenylketonuria”.

As for `CC(C)OC(=O)[C@@H](C)NC(=O)C(N)C(=O)O` (mixture of isomers) [Compound (8), DL-Aminomalonyl-D-Alanine Isopropyl Ester], the “sweet taste (words)” value in series [4] is on record as “sweet”. Further, in series [4] (0.0431 Millimolar), the “After Taste? (average score)” value is 0, the “Bitter? (average score)” value was determined as 1, the “Off Taste? (average score)” value is on record as 2 and the “Pleasant? (average score)” value came out at 15. Besides, in series [4] (0.0431 Millimolar), the “Salty? (average score)” value was determined as 1 and the “Sweet? (average score)” value is listed as 2. In series [4] (0.4307 Millimolar), the “After Taste? (average score)” value is listed as 7, the “Bitter? (average score)” value was 12, the “Off Taste? (average score)” value is reported as 8 and the “Pleasant? (average score)” value was 10. Further, in series [4] (0.4307 Millimolar), the “Salty? (average score)” value is 11 and the “Sweet? (average score)” value is 1. In addition, in series [4] (4.3066 Millimolar), the “After Taste? (average score)” value amounted to 5, the “Bitter? (average score)” value came to 0, the “Off Taste? (average score)” value is on record as 3 and the “Pleasant? (average score)” value came out at 24. Also, in series [4] (4.3066 Millimolar), the “Salty? (average score)” value is 12 and the “Sweet? (average score)” value is on record as 28. For the same molecule, in series [5] (0.8621 Millimolar), the “After Taste? (average score)” value was found to be 4, the “Bitter? (average score)” value was found to be 7, the “Off Taste? (average score)” value turned out to be 13 and the “Pleasant? (average score)” value is recorded as -11. Also, in series [5] (0.8621 Millimolar), the “Salty? (average score)” value stood at 21 and the “Sweet? (average score)” value is on record as 4. For the same molecule, in series [5] (3.0172 Millimolar), the “After Taste? (average score)” value came out at 6, the “Bitter? (average score)” value was determined as 3, the “Off Taste? (average score)” value came to 2 and the “Pleasant? (average score)” value is reported as 13. In series [5] (3.0172 Millimolar), the “Salty? (average score)” value was found to be 5 and the “Sweet? (average score)” value is 32. In addition, in series [5] (9.0517 Millimolar), the “After Taste? (average score)” value is recorded as 4, the “Bitter? (average score)” value amounted to 1, the “Off Taste? (average score)” value worked out at 3 and the “Pleasant? (average score)” value came to 34. Also, in series [5] (9.0517 Millimolar), the “Salty? (average score)” value came to 3 and the “Sweet? (average score)” value turned out to be 61. For the same molecule, in series [5] (compared to saccharin), the “aftertaste / side tastes” value was “does not possess a "metallic" aftertaste, and there are virtually no detracting side tastes”. Also, the “sweetness potency (reciprocal of concentration required for a score of 50)” value in series [5] (sucrose=1.0, weight scale) worked out at 58. In series [5] (taste panel), the “onset and decay of sweet taste” value is “rapid onset and a rapid decay of sweet taste”; the “taste quality” value was “uncommon sucrose-like sweet taste that is free of detracting side and after tastes; also recorded: sweet and pleasant”. Besides, in series [5] (weight basis), the “sweetness relative to aspartame” value is “about half as sweet as aspartame” and the “times sweeter than sucrose” value turned out to be 58 times. In addition, in series [6] (pH 3.5, 36 days), the degraded at 864 h was less than 5% and the “improvement in stability relative to aspartame” value is given as “ten fold improvement in stability”. Also, in series [6] (pH 7.4 buffer, 36 days), the degraded at 864 h was 70%. The gross necropsy result in series [7] (day 14, 100 and 300 mg/kg oral) is on record as “No toxic effects were detected”. Besides, the “kidney and liver toxicity” value in series [7] (from serum urea nitrogen and alanine aminotransferase, 100 and 300 mg/kg oral) is “absence of kidney and liver toxicity”. For the same molecule, the “serum urea nitrogen and alanine aminotransferase activity” value in series [7] (post-study samples, 100 or 300 mg/kg oral) was “Neither elevated serum urea nitrogen nor elevated alanine aminotransferase activity were detected”. Moreover, the “behavioral or pharmacological effects” value in series [7] (single oral dose 100 and 300 mg/kg) is “no behavioral or pharmacological effects were observed”. Moreover, in series [7] (single oral dose 100 and 300 mg/kg, 14-day study), the body weights entry is “normal”. Besides, in series [7] (setting [8]), the acute oral toxicity entry is given as “no toxic effect; also recorded: nontoxic at all doses tested” and the eating or drinking entry was “no excessive eating or drinking”. In addition, in the series with five Salmonella strains, the “mutagenic potential and toxicity in Ames assay” value is on record as “neither mutagenic potential nor toxicity”.
